# In publication PMC12156367, “Synthesis and Biological Evaluation of Seco-Coumarin/Furoxan Hybrids as Potent Anti-Tumor Agents to Overcome Multidrug Resistance via Multiple Mechanisms” (Molecules, 2025):
# Legend:
# [1] = tested on: MCF-7/ADR; experiment: Antiproliferative activity of 9e after pre-treatment with inhibitors (MTT); type: cell-based, human
# Description: (§1) Following harvest during logarithmic growth, cells were plated in 96-well culture plates at an initial density of 5000 cells per well. Incubate the plate overnight at 37 °C to allow the cells to adhere. Following the overnight incubation, introduce the compound at the predetermined concentration into each well, and then return the plate to the incubator for an additional 48 h culture period. After the 48 h treatment, carefully aspirate the drug-containing medium from each well. Subsequently, add 150 μL of 0.5 mg/mL MTT (Beyotime, China) solution to each well. Protect the plate from light and incubate it at 37 °C for 4 h to allow the formation of formazan crystals. Finally, add 150 μL of DMSO (Sinopharm, China) to each well and gently mix to ensure complete dissolution of the formazan crystals. The OD value at 570nm was measured using a microplate reader (Thermo Fisher, Waltham, MA, USA). Cell proliferation inhibition was determined using the following formula:Inhibition (%) = [(ODDMSO − ODcompd.)/(ODDMSO − ODblank)] × 100
# Carboxy-PTIO (NO scavenger), NAC (N-acetylcysteine), tariquidar (P-glycoprotein inhibitor), and Fer-1 (ferrostatin-1, ferroptosis inhibitor) were purchased from Beyotime. MCF-7/ADR (5000 cells/well) were plated in 96-well plates and cultured overnight. Then, the cells were pre-treated with specified concentrations of inhibitors for 1 h and incubated with 9e (10 or 20 nM) or DMSO (24 h, 37 °C). Experimental procedures were the same as the method for the in vitro antiproliferative assay.
# [2] = tested on: GPX4 in MCF-7/ADR; experiment: Western blot of GPX4; type: cell-based, human; conditions: after treatment of 9e
# Description: MCF-7/ADR (2 × 10^5 cells/well) were plated in 6-well plates. After 24 h treatment with 9e (20 nM), cell lysates were prepared using RIPA buffer (Beyotime, Shanghai, China; 30 min, ice), then centrifuged (12,000 rpm, 10 min, 4 °C) to harvest protein supernatants. Protein concentrations were measured by BCA assay (Beyotime, Shanghai, China). The supernatants were then loaded and transferred onto PVDF membranes (Millipore, Billerica, MA, USA) for western blot. The blots were developed with ECL chemiluminescent solution (Meilunbio, Dalian, China). Commercially purchased antibodies include P-gp (Abcam, Cambridge, UK; ab170904), Caspase 3 (Proteintech, Wuhan, China; 19677-1-AP), Bcl-2 (Servicebio, Wuhan, China; GB113375-100), LC3 (Abcam, Abcam, Cambridge, UK; ab192890), P62 (Cell Signaling Technology, Danvers, MA, USA; 5114 T), Beclin (ABclonal, Wuhan, China; A7353), GPX4 (ABclonal, Wuhan, China; A11243), LAMP1 (Cell Signaling Technology, Danvers, MA, USA;15,665 T), GAPDH (Servicebio, Wuhan, China; GB11002-100), and β-Actin (Servicebio, Wuhan, China;GB11001-100). The secondary antibodies conjugated with horseradish peroxidase (HRP) were from Abmart.
# [3] = biological target: T1, hERG potassium channels (Homo sapiens, UniProt Q12809); experiment: Inhibition of hERG potassium channels (QPatch patch clamp, CHO-hERG cells); type: cell-based
# T1 construct: expressed in transfected cells; host or cells: CHO-hERG cells (CHO cells expressing hERG)
# Description: CHO-hERG cells (2 × 10^6 cells/dish) were seeded in confocal dishes. The compound stock solution was diluted with DMSO to six concentrations: 40.00, 13.33, 4.44, 1.48, 0.49, and 0.16 μM, which was prepared by using the Bravo platform. Both single-cell high-resistance sealing and whole-cell mode formation were automatically performed by the QPatch system (Shanghai Institute of Materia Medica, Shanghai, China). Each concentration was tested on at least two cells (n ≥ 2).
# [4] = Solubility experiment (HPLC) in water/acetonitrile; type: physicochemical; conditions: in water/acetonitrile (table title)
# Description: Wavelength: 254 nm; flow rate: 1.0 mL/min; column temperature: 25 °C. Mobile phase: Phase A: water, Phase B: acetonitrile (Table 5).
# Compounds were dissolved in chromatographic-grade acetonitrile and diluted to concentrations of 200, 100, 50, 25, 12.5, and 6.25 µg/mL. A standard curve was plotted using the peak area under the curve (AUC) versus concentration. […] The supernatant was filtered through an ultrafiltration membrane and then subjected to HPLC analysis. The solubility of the target compound was determined by substituting the AUC of the test compound into the standard curve. Each measurement was performed in triplicate.
# [5] = tested on: MCF-7/ADR (doxorubicin-resistant human breast cancer cell line); experiment: In vitro antiproliferative assay (MTT, 48 h), MCF-7/ADR; type: cell-based
# Excerpt: The MDA-MB-468 cell line was procured from the Cell Bank of the Chinese Academy of Sciences. The MCF-7, MCF-7/ADR, MCF-10A, and MDA-MB-231 cell lines were kindly provided by Professor Xianyi Sha (Fudan University, Shanghai, China). The HUVEC cells were kindly provided by Associate Professor Hulie Zeng (Fudan University, Shanghai, China). The MDA-MB-468, MDA-MB-231, MCF-7, MCF-10A, and HUVEC cells were cultivated in DMEM (Service Biotechnology, China) supplemented with 10% FBS (Capricorn Scientific, Germany) and 1% penicillin-streptomycin (Meilunbio, Dalian, China). For the MCF-7/ADR cells, they were cultured in RPMI-1640 (Service Biotechnology, Wuhan, China), containing 10% FBS and 1% penicillin-streptomycin. Additionally, 500 ng/mL of doxorubicin (Sigma-Aldrich, Saint Louis, MO, USA) was incorporated into the RPMI-1640 culture medium to keep drug resistance. All cell lines were cultured in a humidified incubator at 37 °C with a 5% CO2 atmosphere.
# as §1
# GraphPad Prism software 9 was used to calculate the IC50 values. The specific calculation process is as follows: Firstly, we input the experimental data into Prism. The data include the concentrations of the experimental compounds and the corresponding biological response values. For instance, in the cell experiment, we recorded the cell viability values at different drug concentrations. Subsequently, we select the option of “Dose–Response–Nonlinear Regression” in the “Analyze” menu for curve fitting. Generally speaking, we use the model of “[Inhibitor] vs. normalized response—Variable slope”. The Prism software fits the data through the nonlinear least squares method and finds the parameter values that can minimize the difference between the model’s predicted values and the actual data. After completing the curve fitting, the software will directly provide the estimated values and confidence intervals of the IC50 value and other relevant parameters. Meanwhile, it will also offer goodness-of-fit indices, such as the correlation coefficient, to evaluate the quality of the fitting. Through the above method, we can accurately calculate the IC50 value, thereby assessing the intensity of the inhibitory or activating effect of the compound on the biological system.
# T1 sequence (Q12809 whole entry): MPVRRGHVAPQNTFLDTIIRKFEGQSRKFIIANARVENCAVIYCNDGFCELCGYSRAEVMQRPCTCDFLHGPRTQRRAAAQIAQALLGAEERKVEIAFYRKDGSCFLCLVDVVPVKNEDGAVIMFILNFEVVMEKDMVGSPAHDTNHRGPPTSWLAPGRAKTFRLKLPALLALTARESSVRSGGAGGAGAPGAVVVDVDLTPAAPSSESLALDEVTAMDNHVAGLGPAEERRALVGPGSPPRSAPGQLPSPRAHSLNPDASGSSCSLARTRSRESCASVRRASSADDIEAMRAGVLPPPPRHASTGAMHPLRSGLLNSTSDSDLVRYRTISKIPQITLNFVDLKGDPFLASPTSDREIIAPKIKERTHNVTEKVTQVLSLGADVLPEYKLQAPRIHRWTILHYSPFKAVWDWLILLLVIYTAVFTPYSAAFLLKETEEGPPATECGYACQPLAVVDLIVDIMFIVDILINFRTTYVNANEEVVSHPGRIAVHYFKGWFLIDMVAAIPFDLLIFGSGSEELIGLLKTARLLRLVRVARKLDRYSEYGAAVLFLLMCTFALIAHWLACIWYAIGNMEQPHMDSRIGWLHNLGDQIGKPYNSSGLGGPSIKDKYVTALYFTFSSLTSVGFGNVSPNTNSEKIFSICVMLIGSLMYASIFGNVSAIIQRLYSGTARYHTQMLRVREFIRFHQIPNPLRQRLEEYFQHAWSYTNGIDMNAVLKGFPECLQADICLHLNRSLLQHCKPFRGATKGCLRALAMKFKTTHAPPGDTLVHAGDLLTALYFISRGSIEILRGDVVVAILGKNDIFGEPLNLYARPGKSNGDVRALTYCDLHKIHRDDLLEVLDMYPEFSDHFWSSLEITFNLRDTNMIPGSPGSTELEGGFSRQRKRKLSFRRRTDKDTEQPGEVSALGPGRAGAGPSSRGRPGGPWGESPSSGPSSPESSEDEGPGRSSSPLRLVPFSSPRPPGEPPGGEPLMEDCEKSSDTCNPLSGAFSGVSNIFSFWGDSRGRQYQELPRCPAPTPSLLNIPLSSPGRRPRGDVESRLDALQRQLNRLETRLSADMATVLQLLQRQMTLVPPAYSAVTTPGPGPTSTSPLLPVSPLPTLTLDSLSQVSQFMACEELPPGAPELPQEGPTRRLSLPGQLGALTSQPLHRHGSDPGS
structure (smiles),measurement,setting,value
"COc1ccc(CCC(=O)c2ccc(OCCOc3no[n+]([O-])c3S(=O)(=O)c3ccccc3)cc2OC)cc1 [Compound 9e, 4-(2-(3-methoxy-4-(3-(4-methoxyphenyl)propanoyl)phenoxy)ethoxy)-3-(phenylsulfonyl)-1,2,5-oxadiazole 2-oxide]",inhibitory activity after NAC pretreatment,[1]; 10 nM 9e + 1250 μM NAC,completely lost its inhibitory activity
same,cell survival rate with NO scavenger Carboxy-PTIO,[1]; 20 nM 9e + 100 μM Carboxy-PTIO,53.7%
same,cells still inhibited with P-gp inhibitor tariquidar,[1]; 9e + 5 μM tariquidar,62%
same,inhibition at 0.02 µM,"[1]; Homo sapiens, NCI/ADR-RES, 9e 20 nM alone, read-out: proliferation inhibition rate",89%
same,expression of GPX4,[2],clearly decreased
same,IC50,[3],> 40000 nM
same,Solubility,[4],56.4 ± 5.5%
same,IC50,"[5]; Homo sapiens, NCI/ADR-RES, MTT, 48 h, mean of three determinations",3.02 nM
same,Selectivity Ratio IC50(MCF-7)/ IC50(MCF-7/ADR),[5]; collateral sensitivity,1402.0
